Experimental data taken from patent US10947252B2, “Inhibitors of KEAP1-Nrf2 protein-protein interaction” (Janssen Pharmaceutica NV, priority 2018, dated 2021).

What was measured:
[1] = molecular target: Kelch domain of human KEAP1 (321-624 aa) (Homo sapiens (Human), UniProt Q14145); experiment: KEAP1 KELCH ThermoFluor binding assay; conditions: KEAP Kelch […], 1,8-ANS, pH 7.0, average of results obtained, read-out: Tf Kd;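 further: Ligand-induced melting temperature shift of E. coli-expressed KEAP1 Kelch protein, Kd estimated from concentration-response curves of ΔTm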
Chain of Kelch domain of human KEAP1 (321-624 aa) (Q14145 321-624): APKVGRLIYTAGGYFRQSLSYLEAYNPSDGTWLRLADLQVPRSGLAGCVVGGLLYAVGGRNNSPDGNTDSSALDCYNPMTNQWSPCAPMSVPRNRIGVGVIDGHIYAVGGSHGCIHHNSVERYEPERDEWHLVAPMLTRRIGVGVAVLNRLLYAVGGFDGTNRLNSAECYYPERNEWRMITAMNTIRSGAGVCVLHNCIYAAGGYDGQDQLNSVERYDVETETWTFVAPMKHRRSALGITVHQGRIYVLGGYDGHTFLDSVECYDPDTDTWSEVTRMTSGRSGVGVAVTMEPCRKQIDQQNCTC

[2] = tested on: Glo-Response ARE-luc2P HEK293 cell line; experiment: ARE luciferase reporter cell-based assay; conditions: average of results obtained;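 further: luciferase signal tracks Nrf2 activation of the ARE once compounds disrupt KEAP1-Nrf2 binding, read with One-Glo reagent, DMSO serving as low control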

Structure (SMILES): CC[C@@H]1CN(Cc2cc([C@@H](CC(=O)O)c3cc(OC(F)F)c4c(c3)nnn4C)ccc2C)S(=O)(=O)c2cccnc2O1 (single isomer, unassigned) [Example 251, (*R)-3-(7-(Difluoromethoxy)-1-methyl-1H-benzo[d][1,2,3]triazol-5-yl)-3-(3-(((R)-4-ethyl-1,1-dioxido-3,4-dihydro-2H-pyrido[2,3-b][1,4,5]oxathiazepin-2-yl)methyl)-4-methylphenyl)propanoic Acid]
- Kd [1]: < 1 nM
- EC50 ([2]; Homo sapiens, HEK293, 24 h): 24.1 nM

Structure (SMILES): Cc1cnc2c(c1)S(=O)(=O)N(Cc1cc([C@@H](c3ccc4c(nnn4C4CC4)c3C)C(C)(C)C(=O)O)ccc1C)CC1(CCNCC1)O2 (single isomer, unassigned) [Example 650, (*S)-3-(1-Cyclopropyl-4-methyl-1H-benzo[d][1,2,3]triazol-5-yl)-2,2-dimethyl-3-(4-methyl-3-((8′-methyl-1′,1′-dioxidospiro[piperidine-4,4′-pyrido[2,3-b][1,4,5]oxathiazepin]-2′(3′H)-yl)methyl)phenyl)propanoic Acid]
- Kd [1]: < 1 nM
- EC50 ([2]; Homo sapiens, HEK293, 24 h): 4.36 nM

Structure (SMILES): Cc1ccc([C@@H](c2ccn3c(C(F)(F)F)nnc3c2C)C(C)(C)C(=O)O)cc1CN1CC2(CCOCC2)Oc2nc(OCCN3CCCCC3)c(C)cc2S1(=O)=O (single isomer, unassigned) [Example 126, 2,2-Dimethyl-3-(4-methyl-3-((8′-methyl-1′,1′-dioxido3-(3-((7′-(((*S)-4-hydroxybutan-2-yl)amino)-8′-methyl-1′,1′-dioxido-7′-(2-(piperidin-1-yl)ethoxy)-2,3,5,6-tetrahydrospiro[pyran-4,4′-pyrido[2,3-b][1,4,5]oxathiazepin]-2′(3′H)-yl)methyl)phenyl)-3-(8-methyl-3-(trifluoromethyl)-[1,2,4]triazolo[4,3-a]pyridine-7-yl)propanoic Acid]
- Kd [1]: < 1 nM
- EC50 ([2]; Homo sapiens, HEK293, 24 h): 6 nM

Structure (SMILES): Cc1ccc([C@@H](c2ccn3c(C(F)F)nnc3c2C)C(C)(C)C(=O)O)cc1CN1CC2(CCOCC2)Oc2nc(OCCN3CCCC3)c(C)cc2S1(=O)=O (single isomer, unassigned) [Example 377, (*S)-3-(3-(Difluoromethyl)-8-methyl-[1,2,4]triazolo[4,3-a]pyridine-7-yl)-2,2-dimethyl-3-(4-methyl-3-((8′-methyl-1′,1′-dioxido-7′-(2-(pyrrolidin-1-yl)ethoxy)-2,3,5,6-tetrahydrospiro[pyran-4,4′-pyrido[2,3-b][1,4,5]oxathiazepin]-2′(3′H)-yl)methyl)phenyl)propanoic Acid]
- Kd [1]: < 1 nM
- EC50 ([2]; Homo sapiens, HEK293, 24 h): 44.9 nM

Structure (SMILES): Cc1ccc([C@H](CC(=O)O)c2ccn3c(C(F)(F)F)nnc3c2C)cc1CN1C[C@H]2CCCCN2c2ccccc2S1(=O)=O (single isomer, unassigned) [Example 300, (*S)-3-(3-(((*R)-5,5-Dioxido-7,7a,8,9,10,11-hexahydro-6H-benzo[f]pyrido[2,1-d][1,2,5]thiadiazepin-6-yl)methyl)-4-methylphenyl)-3-(8-methyl-3-(trifluoromethyl)-[1,2,4]triazolo[4,3-a]pyridin-7-yl)propanoic Acid]
- Kd [1]: < 1 nM
- EC50 ([2]; Homo sapiens, HEK293, 24 h): 5 nM

Structure (SMILES): CCn1nnc2c(C)c([C@@H](CC(=O)O)c3ccc(C)c(CN4C[C@H]5CCCN5c5ncccc5S4(=O)=O)n3)ccc21 (single isomer, unassigned) [Example 298, (*R)-3-(6-(((R)-5,5-Dioxido-7a,8,9,10-tetrahydropyrido[2,3-f]pyrrolo[2,1-d][1,2,5]thiadiazepin-6(7H)-yl)methyl)-5-methylpyridin-2-yl)-3-(1-ethyl-4-methyl-1H-benzo[d][1,2,3]triazol-5-yl)propanoic Acid]
- Kd [1]: < 1 nM
- EC50 ([2]; Homo sapiens, HEK293, 24 h): 21.5 nM

Structure (SMILES): Cc1ccc(C(CC(=O)O)c2ccn3c(C(F)(F)F)nnc3c2C)nc1CN1CC2(COC2)Oc2ccccc2S1(=O)=O (stereo not drawn) [Example 484, 3-(6-((1,1-Dioxidospiro[benzo[b][1,4,5]oxathiazepine-4,3′-oxetan]-2(3H)-yl)methyl)-5-methylpyridin-2-yl)-3-(8-methyl-3-(trifluoromethyl)-[1,2,4]triazolo[4,3-a]pyridin-7-yl)propanoic Acid]
- Kd [1]: < 1 nM
- EC50 ([2]; Homo sapiens, HEK293, 24 h): 226 nM

Structure (SMILES): Cc1ccc([C@H](CC(=O)O)c2ccc3c(nnn3CC3CC3)c2C)cc1CN1C[C@@H]2CCCCN2c2ncccc2S1(=O)=O (single isomer, unassigned) [Example 232, (*S)-3-(1-(Cyclopropylmethyl)-4-methyl-1H-benzo[d][1,2,3]triazol-5-yl)-3-(3-(((*S)-5,5-dioxido-7,7a,8,9,10,11-hexahydro-6H-dipyrido[2,1-d:2′,3′-f][1,2,5]thiadiazepin-6-yl)methyl)-4-methylphenyl)propanoic Acid]
- Kd [1]: < 1 nM
- EC50 ([2]; Homo sapiens, HEK293, 24 h): 2.6 nM

Structure (SMILES): Cc1cnc2c(c1)S(=O)(=O)N(Cc1cc([C@H](CC(=O)O)c3ccn4c(C(F)(F)F)nnc4c3C)ccc1C)CC1(CCOCC1)O2 (single isomer, unassigned) [Example 208, (*S)-3-(4-Methyl-3-((8′-methyl-1′,1′-dioxido-2,3,5,6-tetrahydrospiro[pyran-4,4′-pyrido[2,3-b][[,4,5]oxathiazepin]-2′(3′H)-yl)methyl)phenyl)-3-(8-methyl-3-(trifluoromethyl)-[1,2,4]triazolo[4,3-a]pyridin-7-yl)propanoic Acid]
- Kd [1]: < 1 nM
- EC50 ([2]; Homo sapiens, HEK293, 24 h): 19 nM

Structure (SMILES): Cc1ccc(C(c2ccn3c(C(F)(F)F)nnc3c2C)C(C)(C)C(=O)O)cc1CN1CC2(CCOCC2)Oc2nc(OCCN3CCOCC3)ccc2S1(=O)=O (racemic) [Example 46]
- Kd [1]: < 1 nM
- EC50 ([2]; Homo sapiens, HEK293, 24 h): 71.9 nM

Structure (SMILES): Cc1cnc2c(c1)S(=O)(=O)N(Cc1cc(C(CC(=O)O)c3ccn4c(C(F)(F)F)nnc4c3C)ccc1Cl)CC1CCCCN21 (stereo not drawn) [Example 89, 3-(4-Chloro-3-(((*S)-3-methyl-5,5-dioxido-7,7a,8,9,10,11-hexahydro-6H-dipyrido[2,1-d:2′,3′-f][1,2,5]thiadiazepin-6-yl)methyl)phenyl)-3-(8-methyl-3-(trifluoromethyl)-[1,2,4]triazolo[4,3-a]pyridine-7-yl)propanoic Acid]
- Kd [1]: 0.0054 nM
- EC50 ([2]; Homo sapiens, HEK293, 24 h): 6.9 nM

Structure (SMILES): CCc1nnc2c(C)c(C(CC(=O)O)c3ccc(C)c(CN4C[C@H]5CCCN5c5ccccc5S4(=O)=O)c3)ccn12 (stereo partly drawn) [Example 278, 3-(3-(((R)-5,5-Dioxido-7a,8,9,10-tetrahydrobenzo[f]pyrrolo[2,1-d][1,2,5]thiadiazepin-6(7H)-yl)methyl)-4-methylphenyl)-3-(3-ethyl-8-methyl-[1,2,4]triazolo[4,3-a]pyridin-7-yl)propanoic Acid]
- Kd [1]: < 1 nM
- EC50 ([2]; Homo sapiens, HEK293, 24 h): 467 nM

Structure (SMILES): Cc1ncc([C@@H](c2ccn3c(C(F)(F)F)nnc3c2C)C(C)(C)C(=O)O)cc1CN1C[C@@H]2CCCCN2c2ncc(C#N)cc2S1(=O)=O (single isomer, unassigned) [Example 655, (*R)-3-(5-(((*S)-3-Cyano-5,5-dioxido-7,7a,8,9,10,11-hexahydro-6H-dipyrido[2,1-d:2′,3′-f][1,2,5]thiadiazepin-6-yl)methyl)-6-methylpyridin-3-yl)-2,2-dimethyl-3-(8-methyl-3-(trifluoromethyl)-[1,2,4]triazolo[4,3-a]pyridin-7-yl)propanoic Acid]
- Kd [1]: < 1 nM
- EC50 ([2]; Homo sapiens, HEK293, 24 h): 138 nM

Structure (SMILES): Cc1ccc(C(CC(=O)O)c2ccn3c(C(F)(F)F)nnc3c2C)nc1CN1CC2(CC2)Oc2ncc(F)cc2S1(=O)=O (stereo not drawn) [Example 508, 3-(6-((8′-Fluoro-1′,1′-dioxidospiro[cyclopropane-1,4′-pyrido[2,3-b][1,4,5]oxathiazepin]-2′(3′H)-yl)methyl)-5-methylpyridin-2-yl)-3-(8-methyl-3-(trifluoromethyl)-[1,2,4]triazolo[4,3-a]pyridin-7-yl)propanoic Acid]
- Kd [1]: < 1 nM
- EC50 ([2]; Homo sapiens, HEK293, 24 h): 92.7 nM

Structure (SMILES): Cc1ccc(C(CC(=O)O)c2ccn3c(C(F)(F)F)nnc3c2C)cc1CN1C[C@H]2CCCN2c2ncccc2S1(=O)=O (stereo partly drawn) [Example 264, 3-(3-(((R)-5,5-Dioxido-7a,8,9,10-tetrahydropyrido[2,3-f]pyrrolo[2,1-d][1,2,5]thiadiazepin-6(7H)-yl)methyl)-4-methylphenyl)-3-(8-methyl-3-(trifluoromethyl)-[1,2,4]triazolo[4,3-a]pyridin-7-yl)propanoic Acid]
- Kd [1]: < 1 nM
- EC50 ([2]; Homo sapiens, HEK293, 24 h): 18.3 nM

Structure (SMILES): Cc1ccc(C(CC(=O)O)c2ccn3c(C(F)F)nnc3c2C)cc1CN1CC2(CC2)Oc2ncc(Cl)cc2S1(=O)=O (stereo not drawn) [Example 529, 3-(3-((8′-Chloro-1′,1′-dioxidospiro[cyclopropane-1,4′-pyrido[2,3-b][1,4,5]oxathiazepin]-2′(3′H)-yl)methyl)-4-methylphenyl)-3-(3-(difluoromethyl)-8-methyl-[1,2,4]triazolo[4,3-a]pyridin-7-yl)propanoic Acid]
- Kd [1]: < 1 nM
- EC50 ([2]; Homo sapiens, HEK293, 24 h): 29.1 nM

Structure (SMILES): Cc1ccc([C@H](CC(=O)O)c2ccn3c(C(F)F)nnc3c2C)cc1CN1C[C@H]2CCCN2c2ncc(C#N)cc2S1(=O)=O (single isomer, unassigned) [Example 540, (*S)-3-(3-(((*R)-3-Cyano-5,5-dioxido-7a,8,9,10-tetrahydropyrido[2,3-f]pyrrolo[2,1-d][1,2,5]thiadiazepin-6(7H)-yl)methyl)-4-methylphenyl)-3-(3-(difluoromethyl)-8-methyl-[1,2,4]triazolo[4,3-a]pyridin-7-yl)propanoic Acid]
- Kd [1]: < 1 nM
- EC50 ([2]; Homo sapiens, HEK293, 24 h): 26.7 nM

Structure (SMILES): Cc1cnc2c(c1)S(=O)(=O)N(Cc1cc([C@H](c3ccn4c(C(F)(F)F)nnc4c3C)C(C)(C)C(=O)O)ccc1C)CC1(CCOCC1)O2 (single isomer, unassigned) [Example 408, (*R)-2,2-dimethyl-3-(4-methyl-3-((8′-methyl-1′,1′-dioxido-2,3,5,6-tetrahydrospiro[pyran-4,4′-pyrido[2,3-b][1,4,5]oxathiazepin]-2′(3′H)-yl)methyl)phenyl)-3-(8-methyl-3-(trifluoromethyl)-[1,2,4]triazolo[4,3-a]pyridin-7-yl)propanoic Acid]
- Kd [1]: 1280 nM
- EC50 ([2]; 24 hours): 790 nM
